Legend:
[1] = tested on: human melanoma cell lines and human colorectal cell lines; assay: Surface MHC-I expression on human tumor cell lines (FACS); type: cell-based; settings: 1 micromolar, 24 hours, compared to vehicle treated cells
Description: To determine if treatment with MEK inhibitor (MEKi) enhanced immunogenicity of tumor cells, surface expression of MHC-I on tumor cell lines treated with MEK inhibitors GDC-0973 and G-38963 was assayed. Briefly, human melanoma cell lines (Malme-3M, A2058, […][…], SK23, SKMEL-28, 537 Mel, RPMI-795) and human colorectal cell lines (Colo 320 DM, Colo 205, WiDr, Colo 741, RKO, DLD-1, HM7, HCT-15) were treated with 1 micromolar […]-0973 or G-38963, BRAF inhibitor (BRAFi) GDC-0879, or DMSO vehicle for 24 hours. Following treatment, cells were stained for surface MHC Class I expression with an antibody against […] for subsequent FACS analysis. Data shown is for treatment […]-0973. Labeled isotype-matched antibodies were used to determine the level of non-specific staining.

[2] = tested on: mouse tumor cell lines (MC38, B16.F10, CT26); assay: Surface MHC-I expression on mouse tumor cell lines (FACS); type: cell-based; settings: 1 micromolar, 24 hours, compared to vehicle treated cells
Description: To determine if treatment with MEK inhibitor (MEKi) enhanced immunogenicity of mouse tumor cells similarly to human tumor cells, surface expression of MHC-I on mouse tumor cell lines treated with MEKi GDC-0973 was assayed. Briefly, mouse melanoma cell lines ([…]) and a mouse colorectal cell line (CT26) were treated with MEKi GDC-0973, G-38963 or vehicle. Briefly, cells were stimulated for 24 hours with 1 micromolar MEK inhibitor or DMSO vehicle control. Following treatment, cells were surfaced stained with an antibody against MHC-I (H-2D) and expression was assayed by subsequent FACS analysis. Labeled isotype-matched antibodies were used to determine the level of non-specific staining.

[3] = tested on: human CD8+ T cells; assay: CD8+ T cell proliferation (3H-thymidine); type: cell-based; settings: for T cell receptor induced proliferation, anti-CD3 stimulation: 0.01 μM MEKi; for T cell activation, co-stimulation with anti-CD3 and anti-CD28: 10 μM to 0.001 μM MEKi; for T cell proliferation, anti-CD3 stimulation: all MEKi concentrations tested (10 μM to 0.001 μM)
Description: Recent studies have shown that MEK inhibitor treatment impairs T lymphocyte function (Boni et al., Cancer Res., 70(13), 2010). To confirm that MEK inhibitor treatment impaired CD8+ T cells, T cells were treated with MEKi in combination with T cell stimulation signals and assayed for T cell proliferation. Briefly, human CD8+ T cells were purified from whole blood using StemCell Technologies human CD8 RosetteSep as per manufacturer's instructions. Purified cells were plated at 200,000 per well in triplicate in 96-well U-bottom plates with 200,000 per well of either anti-CD3 or anti-CD3/anti-CD28 Dynabeads (Invitrogen). MEK inhibitors GDC-0973 and G-38963 were titrated 10-fold from 10 μM to 0.001 μM such that the final culture concentration was 0.5% DMSO in a total volume of 200 μl per well. […] Gluta-MAX, sodium pyruvate, penicillin/streptomycin, and non-essential amino acids. At 48 hours, wells were pulsed with 1 μCi/well of 3H-thymidine and cultured an additional 16 hours prior to freezing and harvest.

[4] = tested on: human monocyte-derived dendritic cells; assay: Maturation and activation of monocyte-derived dendritic cells with anti-CD40 (FACS); type: cell-based; settings: for frequency of DCs expressing surface markers of DC maturation and activation: increasing concentrations 0.001 μM to 10 μM, anti-CD40 co-stimulation
Description: Briefly, human monocytes were purified from whole blood using StemCell Technologies human monocyte RosetteSep as per manufacturer's instructions. Monocytes were seeded in T175 flasks at approximately 0.5-1.0×10^6 per ml in 50 ng/ml human GM-CSF and 100 ng/ml human IL-4 for 7 days total, with half-media exchanges every 2 days. […] MEK inhibitors and BRAF inhibitor were titrated 10-fold from 10 μM to 0.001 μM such that the final culture concentration was 0.5% DMSO in a total volume of 200 μl per well. Forty-eight hours later, cells were harvested and transferred to a 96-well V-bottom plate. […] HLA-DR,-DP,-DQ-FITC, HLA-ABC-PE, CD83-APC, CD14-FITC, CD80-PE, and CD86-APC. Propidium iodide was included to exclude dead cells. Samples were run on a BD FACSCaliber flow cytometer and data was analyzed using FlowJo software (Tree Star, Inc.).

[5] = tested on: serum IL-10 and KC in tumor bearing animals; assay: Serum cytokine levels in tumor bearing mice (Bio-Plex); type: in vivo; settings: melanoma and colorectal models, 7 days after treatment
Text: Briefly, 7 days after treatment, mice were anaesthetized and bled retro-orbitally for serum.

[6] = tested on: colorectal tumors; assay: Colorectal tumor mouse model, G-38963 and anti-PD-L1; type: in vivo, mice; settings: early (200 mm3) or late (450 mm3) intervention; anti-PD-L1 10 mg/kg ip 3x/week for 3 weeks; G-38963 75 mg/kg orally daily 21 days
Description: (§1) To determine if MEKi enhanced the anti-tumor effect of anti-PD-L1 antibodies, mouse models for colorectal tumors were treated with the combination treatment. Briefly, mice were inoculated subcutaneously with tumor cells and allowed to grow tumors. When tumor bearing mice achieved a mean tumor volume of 200 mm3 (FIG. 7A) or 450 mm3 (FIG. 7B), mice were randomly assigned to 1 of 4 treatment groups. […] Mice were monitored for tumor growth and body weight changes.

[7] = tested on: Cloudman S91 melanoma tumors; assay: Melanoma tumor mouse model; type: in vivo, mice; settings: anti-PD-L1 10 mg/kg ip 3x/week for 3 weeks; G-38963 75 mg/kg orally daily 21 days
Description: as §1, with “melanoma” for “colorectal”, “100-200 mm3,” for “200 mm3 (FIG. 7A) or 450 mm3 (FIG. 7B),”

[8] = tested on: human peripheral blood mononuclear cells; assay: Surface MHC-I expression on human PBMCs (FACS); type: cell-based; settings: 1 μM or 3 μM, 24 hours; CD4+ T cells, CD8+ T cells, B cells, monocytes; compared to vehicle
Description: To determine if enhanced cell surface expression of MHC-I is specific to tumor cells, the effect of MEKi treatment on MHC-I expression on human peripheral blood mononuclear cells (PMBCs) was assayed. Briefly, PMBCS were isolated from whole blood by first diluting it with an equal volume of room temperature PBS and subsequent overlay onto Ficoll-filled Leucosep tubes (Greiner Bio-One). […] Gluta-MAX, sodium pyruvate, penicillin/streptomycin, and non-essential amino acids). Cells were plated in 6 well plates at 4×10^6 per well with a total of 4 ml per well. MEK inhibitor GDC-0973 was added at either 1 μM or 3 μM. Cells were harvested 24 hours later and distributed to a 96-well V-bottom plate for FACS staining. […] CD3-FITC, HLA-ABC-PE, CD4-APC, CD19-FITC, and CD14-FITC. Propidium iodide was included to exclude dead cells. Samples were run on a BD FACSCaliber flow cytometer and data was analyzed using FlowJo software (Tree Star, Inc.).

[9] = tested on: CT26 murine colorectal cells; assay: CT26 colorectal tumor model, GDC-0973 dose study (first study); type: in vivo, BALB/c mice
Description: For the first study, female BALB/c mice were inoculated subcutaneously in the unilateral thoracic region with 100,000 CT26 murine colorectal cells in 100 μL of HBSS:matrigel. […] Groups of 10 mice were orally given the following in a volume of 200 μl daily for 21 days: Group 1 received MCT vehicle; Group 2 received 0.5 mg/kg GDC-0973; Group 3 received 1.0 mg/kg GDC-0973; Group 4 received 2.0 mg/kg GDC-0973; Group 5 received 3.0 mg/kg GDC-0973; Group 6 received 4.0 mg/kg GDC-0973; Group 7 received 5.0 mg/kg GDC-0973; Group 8 received 6.0 mg/kg GDC-0973; and Group 9 received 7.5 mg/kg GDC-0973. For both studies, mice were monitored for tumor growth and body weight changes two to three times per week for the duration of the study. […] Fred V. Fowler Company; Newton, Mass.) with length and width measurements perpendicular to one another, and tumor volume was calculated using the equation: Tumor Volume (mm^3)=(Length×Width^2)×0.5 For measurement of body weights, mice were weighed using an Adventura Pro AV812 scale (Ohaus Corporation; Pine Brook, N.J.). Percent body weight change was calculated using the equation: Body weight change (%)=[(WeightDay new−WeightDay 0)/WeightDay 0]×100 Data was analyzed using R, version 2.9.2 (R Development Core Team 2008; R Foundation for Statistical Computing; Vienna, Austria), and the mixed models were fit within R using the nlme package, version 3.1-96 (Pinheiro J et al., R package version 3. 2009, 1-96). Plotting was performed in Prism, version 5.0b for Mac (GraphPad Software, Inc.; La Jolla, Calif.). A mixed modeling approach was used to analyze the repeated measurement of tumor volumes from the same animals over time (Pinheiro J et al., Statistics and Computing, Springer. 2010). This approach addressed both repeated measurements and modest dropouts before study end for reasons classifiable statistically as missing at random (MAR). The fixed effect changes in log2 (volume) by time and dose are modeled as the sum of the main effects and interaction of a natural cubic regression spline basis in time with an auto-determined natural spline basis in dose. Intercepts and growth rates (slopes) were assumed to vary randomly by animal. […] Complete Response (CR) was defined as an individual animal whose tumor volume fell below the Limit of Detection (LOD), at any time during the study. Partial Response (PR) was defined as an individual animal whose tumor volume decreased by 50% of its initial tumor volume at any time during the study. Overall Response Rate (ORR) was defined as the sum of the complete and partial responses. Time To Progression 5X (TTP5X) was defined as the time in days for a group's fitted tumor volume (based upon the mixed modeling analysis described above) to exceed 5 times the starting volume, rounded to the nearest half day and reported as the TTP5X for that group. Linear mixed-effects analysis was also employed to analyze the repeated measurement of body weight changes from the same animals over time.

[10] = tested on: CT26 murine colorectal cells; assay: CT26 colorectal tumor model, anti-PD-L1 and GDC-0973 combination (second study); type: in vivo, BALB/c mice; settings: GDC-0973 7.5 mg/kg orally daily for 21 days
Description: For the second study, female BALB/c mice were inoculated subcutaneously in the unilateral thoracic region with 100,000 CT26 murine colorectal cells in 100 μL of HBSS:matrigel. When mice achieved a mean tumor volume of approximately 200 mm3, they were randomly assigned to one of six different treatment groups on experimental day 0 and treatment was initiated on experimental day 1.
For both studies, mice were monitored for tumor growth and body weight changes two to three times per week for the duration of the study. For measurement of tumor growth, tumor volume was measured using UltraCal-IV calipers (Model 54-10-111; Fred V. Fowler Company; Newton, Mass.) with length and width measurements perpendicular to one another, and tumor volume was calculated using the equation: Tumor Volume (mm^3)=(Length×Width^2)×0.5
Data was analyzed using R, version 2.9.2 (R Development Core Team 2008; R Foundation for Statistical Computing; Vienna, Austria), and the mixed models were fit within R using the nlme package, version 3.1-96 (Pinheiro J et al., R package version 3. 2009, 1-96). […] A mixed modeling approach was used to analyze the repeated measurement of tumor volumes from the same animals over time (Pinheiro J et al., Statistics and Computing, Springer. 2010). This approach addressed both repeated measurements and modest dropouts before study end for reasons classifiable statistically as missing at random (MAR). The fixed effect changes in log2 (volume) by time and dose are modeled as the sum of the main effects and interaction of a natural cubic regression spline basis in time with an auto-determined natural spline basis in dose. Intercepts and growth rates (slopes) were assumed to vary randomly by animal. Tumor growth inhibition as a percentage of the control-treated group (% TGI) was calculated as the percentage of the area under the fitted curve (AUC) for the respective treatment group per day in relation to the control while the control treated mice were still on study, using the equation: % TGI=100×(1−AUCdose/AUCvehicles)

[11] = tested on: mouse bone marrow dendritic cells; assay: Activation of mouse bone marrow derived dendritic cells (FACS); type: cell-based; settings: GDC-0973 1 μM, anti-PD-L1 10 μg/ml, 48 hours
Description: Briefly, mouse bone marrow cells were isolated and seeded at 2×10^6 per 10 ml total volume per 10 cm non-tissue culture treated dishes with 40 ng/ml mouse GM-CSF for 7 days. Fresh media was half-exchanged every 2-3 days. Culture medium was RPMI-1640 with 10% fetal bovine serum, 20 μM HEPES, 55 μM 2-mercaptoethanol, 50 μg/ml gentamicin, and 1:100 dilutions of the following supplements from Gibco: Gluta-MAX, sodium pyruvate, penicillin/streptomycin, and non-essential amino acids. On day 7 all cells were harvested and washed, then seeded at 100,000 cells/well in a 96-well flat-bottom plate. MEK inhibitor GDC-0973 was added at a final concentration of 1 μM, anti-PDL1 human/mouse reverse chimera or anti-Ragweed mouse IgG2a isotype control (Genentech PUR 22251) were added at 10 μg/ml. […] After 48 hours of stimulation, cells were harvested and transferred to a 96-well V-bottom plate. Samples were first Fc receptor blocked (purified anti-CD16/CD32 from BD Biosciences, 5 μg/ml) and then stained with I-A/I-E-FITC, H-2Db/H-2Kb-biotin (followed by streptavidin-PE), CD11c-APC, CD86-FITC, and CD80-PE (all from BD Biosciences). Propidium iodide was included to exclude dead cells. Samples were run on a BD FACSCaliber flow cytometer and data was analyzed using FlowJo software (Tree Star, Inc.).

SMILES: O=C(NOCCO)c1oc2ccncc2c1Nc1ccc(I)cc1F [Compound G-38963]
- cell surface expression of MHC-I [1]: upregulated
- cell surface expression of MHC-I [2]: upregulated
- T cell receptor induced proliferation, anti-CD3 stimulation [3]: nearly complete inhibition
- T cell activation, co-stimulation with anti-CD3 and anti-CD28 [3]: sufficient to overcome the inhibitory effect of MEKi
- T cell proliferation, anti-CD3 stimulation [3]: reduced the stimulatory effect of anti-CD3
- frequency of DCs expressing surface markers of DC maturation and activation [4]: enhanced the frequency of DCs expressing these surface markers
- serum IL-10 level [5]: decreased
- tumor growth [6]: highly effective as a single agent therapy at preventing tumor growth
- tumor growth [7]: highly effective as a single agent therapy at preventing tumor growth

SMILES: O=C(c1ccc(F)c(F)c1Nc1ccc(I)cc1F)N1CC(O)([C@@H]2CCCCN2)C1 [GDC-0973, Methanone, [3,4-difluoro-2-[(2-fluoro-4-iodophenyl)amino]phenyl][3-hydroxy-3-(2S)-2-piperidinyl-1-azetidinyl]-]
- cell surface expression of MHC-I [1]: upregulated
- cell surface expression of MHC-I [2]: upregulated
- cell surface expression of MHC-I [8]: not upregulated
- T cell receptor induced proliferation, anti-CD3 stimulation [3]: nearly complete inhibition
- T cell activation, co-stimulation with anti-CD3 and anti-CD28 [3]: sufficient to overcome the inhibitory effect of MEKi
- T cell proliferation, anti-CD3 stimulation [3]: reduced the stimulatory effect of anti-CD3
- frequency of cells expressing CD83, MHC-II and CD86 ([4]; 1 μM, anti-CD40, 48 hours, compared to vehicle): increased
- frequency of DCs expressing surface markers of DC maturation and activation [4]: enhanced the frequency of DCs expressing these surface markers
- % TGI ([9]; 0.5 mg/kg orally daily for 21 days): −8%
- % TGI ([9]; 1.0 mg/kg orally daily for 21 days): −16%
- % TGI ([9]; 2.0 mg/kg orally daily for 21 days): −21%
- % TGI ([9]; 3.0 mg/kg orally daily for 21 days): −4%
- % TGI ([9]; 4.0 mg/kg orally daily for 21 days): 27%
- % TGI ([9]; 5.0 mg/kg orally daily for 21 days): 55%
- % TGI ([9]; 6.0 mg/kg orally daily for 21 days): 72%
- % TGI ([9]; 7.5 mg/kg orally daily for 21 days): 87%
- tumor growth ([9]; increasing doses, maximal inhibition at 7.5 mg/kg at 20 days post-treatment): suppressed tumor growth
- % CR [10]: 0%
- % PR [10]: 10%
- % TGI [10]: 71%
- TTP5X [10]: 21.5 days
- DC surface activation markers MHC-II, CD80, CD86 [11]: enhanced
- DC surface expression of MHC-I [11]: enhanced

From US10646567B2, “Methods of treating cancer using PD-1 axis binding antagonists and MEK inhibitors” (Genentech, Inc., priority 2011, dated 2020)
